Source: patent EP0510036B1, “2-SUBSTITUTED 4,5-DIPHENYL-IMIDAZOLES” (RHONE-POULENC RORER S.A., priority 1990, dated 1991)

How the values were obtained:
[1] = test system: acyl coenzyme-A:cholesterol-O-acyl transferase (ACAT; EC 2.3.1.26); assay: ACAT inhibition in rat liver microsomes incubated with radiolabelled oleoyl-CoA; type: biochemical; details: liver microsomes of rats fed 0.5%w/w cholesterol and 0.25%w/w cholic acid for 7 days; for In-vitro % Inhibition at 1»g/ml: compound at 1»g/ml; for In-vitro % Inhibition at 0.5»g/ml: compound at 0.5»g/ml
Protocol: In assays performed in-vitro, microsomes, obtained from the livers of rats fed on a diet supplemented with 0.5%w/w cholesterol and 0.25%w/w cholic acid for 7 days, were incubated with radiolabelled oleoyl-CoA in the presence of compounds according to the invention at a concentration of 0.5 or 1 »g/ml.

[2] = test system: plasma cholesterol concentrations; assay: Inhibition of increases in plasma cholesterol in cholesterol-fed rats; type: in vivo; details: diet supplemented by 0.03% w/w of test compound, measured after 3 days, relative to control animals

Compound	In-vitro % Inhibition at 1»g/ml [1] [%]	In-vitro % Inhibition at 0.5»g/ml [1] [%]	In-vivo % Inhibition [2] [%]
c1ccc(-c2nc(SCCCCn3cncn3)[nH]c2-c2ccccc2)cc1 [Compound 1E, 2-[4-(1,2,4-triazol-1-yl)butylthio]-4,5-diphenylimidazole]	86	–	53
c1ccc(-c2nc(SCCCCCn3cncn3)[nH]c2-c2ccccc2)cc1 [Compound 1F, 2-[5-(1,2,4-triazol-1-yl)pentylthio]-4,5-diphenylimidazole]	92	–	74
c1ccc(Cn2ccnc2CSc2nc(-c3ccccc3)c(-c3ccccc3)[nH]2)cc1 [Compound 1K, 2-[(1-benzylimidazol-2-yl)methylthio]-4,5-diphenylimidazole]	57	–	–
c1ccc(-c2nc(SCCCCCCn3cncn3)[nH]c2-c2ccccc2)cc1 [Compound 1L, 2-[6-(1,2,4-triazol-1-yl)hexylthio]-4,5-diphenylimidazole]	91	–	–
Cc1nccn1CCCCSc1nc(-c2ccccc2)c(-c2ccccc2)[nH]1 [Compound 1M, 2-[4-(2-methylimidazol-1-yl)butylthio]-4,5-diphenylimidazole]	–	87	26
c1ccc(-c2nc(SCCCn3ccnc3-c3ccccc3)[nH]c2-c2ccccc2)cc1 [Compound 1N, 2-[3-(2-phenylimidazol-1-yl)propylthio]-4,5-diphenylimidazole]	–	57	–
Cc1ncc([N+](=O)[O-])n1CCSc1nc(-c2ccccc2)c(-c2ccccc2)[nH]1 [Compound 1O, 2-[2-(2-methyl-5-nitroimidazol-1-yl)ethylthio]-4,5-diphenylimidazole]	–	82	–
Cc1cc(C)n(CCCSc2nc(-c3ccccc3)c(-c3ccccc3)[nH]2)n1 [Compound 1P, 2-[3-(3,5-dimethylpyrazol-1-yl)propylthio]-4,5-diphenylimidazole]	–	87	–
c1ccc(-c2nc(SCCCn3cnnn3)[nH]c2-c2ccccc2)cc1 [Compound 1Q, 2-[3-(tetrazol-1-yl)propylthio]-4,5-diphenylimidazole]	88	–	–
c1ccc(-c2nc(SCCCn3ncnn3)[nH]c2-c2ccccc2)cc1 [Compound 1R, 2-[3-(tetrazol-2-yl)propylthio]-4,5-diphenylimidazole]	80	–	–
c1ccc(-c2nc(SCCCCn3cnnn3)[nH]c2-c2ccccc2)cc1 [Compound 1S, 2-[4-(tetrazol-1-yl)butylthio]-4,5-diphenylimidazole]	–	84	41
c1ccc(-c2nc(SCCCCn3ncnn3)[nH]c2-c2ccccc2)cc1 [Compound 1T, 2-[4-(tetrazol-2-yl)butylthio]-4,5-diphenylimidazole]	–	74	–

Further lines, with some results ahead:

In-vitro % Inhibition at 1»g/ml [1] [%]	In-vitro % Inhibition at 0.5»g/ml [1] [%]	Compound	In-vivo % Inhibition [2] [%]
53	–	CC(Sc1nc(-c2ccccc2)c(-c2ccccc2)[nH]1)n1ccnc1 (racemic) [Compound 1I, (±)-2-[1-(imidazol-1-yl)ethylthio]-4,5-diphenylimidazole]	–
90	–	Cc1nccn1CCCSc1nc(-c2ccccc2)c(-c2ccccc2)[nH]1 [Compound 1A, 2-[3-(2-methylimidazol-1-yl)propylthio]-4,5-diphenylimidazole]	64
83	–	c1ccc(-c2nc(SCCCn3cccn3)[nH]c2-c2ccccc2)cc1 [Compound 1B, 2-[3-(pyrazol-1-yl)propylthio]-4,5-diphenylimidazole]	–
88	–	c1ccc(-c2nc(SCCn3cncn3)[nH]c2-c2ccccc2)cc1 [Compound 1C, 2-[2-(1,2,4-triazol-1-yl)ethylthio]-4,5-diphenylimidazole]	–
84	–	c1ccc(-c2nc(SCCCn3cncn3)[nH]c2-c2ccccc2)cc1 [Compound 1D, 2-[3-(1,2,4-triazol-1-yl)propylthio]-4,5-diphenylimidazole]	–
86	–	c1ccc(-c2nc(SCCn3ccnc3)[nH]c2-c2ccccc2)cc1 [Compound 1G]	–
80	–	c1ccc(-c2nc(SCCCn3ccnc3)[nH]c2-c2ccccc2)cc1 [Compound 1H, 2-[3-(imidazol-1-yl)propylthio]-4,5-diphenylimidazole]	–
85	–	Cn1ccnc1CSc1nc(-c2ccccc2)c(-c2ccccc2)[nH]1 [Compound 1J, 2-[(1-methylimidazol-2-yl)methylthio]-4,5-diphenylimidazole]	–
82	–	Cl.Cn1ccnc1CSc1nc(-c2ccccc2)c(-c2ccccc2)[nH]1 [Compound 1JA, 2-[(1-methylimidazol-2-yl)methylthio]-4,5-diphenylimidazole hydrochloride]	23
71	–	c1ccc(-c2nc(SCc3ccncc3)[nH]c2-c2ccccc2)cc1 [Compound 1U, 2-[pyrid-4-ylmethylthio]-4,5-diphenylimidazole]	–
